Assay results as given in US20260232812A1, “BIFUNCTIONAL MOLECULES FOR TARGETED PROTEIN DEGRADATION” (Amphista Therapeutics Limited, priority 2022, published 2026).

How the values were obtained:
Assay type in all cases: cell-based
SMARCA2 = target: T1, SMARCA2 (Homo sapiens, UniProt P51531); test: SMARCA2 degradation, HeLa SMARCA2 HiBiT cells (Assay Protocol 1); conditions: 24 hours after compound addition
T1 construct: a HiBiT tag knocked in at the 3′ end of SMARCA2; host or cells: HeLa SMARCA2 HiBiT knock-in cells
Method: Hela cells with a HiBiT tag knocked in at the 3′ end of SMARCA2 were purchased from Promega (Custom product) (1). HeLa SMARCA2 HiBiT transfected cells were treated with compounds at indicated concentrations using the FlexDrop IQ (Perkin Elmer). 24 hours after compound additions abundance of HiBiT tagged protein was quantified using NanoGlo HiBiT lytic detection system (Promega, N3050). Cell viability was measured using Cell Titre Glow cell viability assay (Promega, G9243). In each case luminescence was measured on a Pherastar platereader.

BRD9 [1] = target: T2, BRD9 (Homo sapiens, UniProt Q9H8M2); test: Assay Protocol 1 - Degradation of HiBit-BRD9 in HEK293; conditions: titration up to 10 μM; for DC50: Assay Protocol 1: HiBit-BRD9 in HEK293, 6 h; for Dmax: HEK293, Assay Protocol 1: HiBit-BRD9 in HEK293, 6 h
T2 sequence (Q9H8M2 1-597): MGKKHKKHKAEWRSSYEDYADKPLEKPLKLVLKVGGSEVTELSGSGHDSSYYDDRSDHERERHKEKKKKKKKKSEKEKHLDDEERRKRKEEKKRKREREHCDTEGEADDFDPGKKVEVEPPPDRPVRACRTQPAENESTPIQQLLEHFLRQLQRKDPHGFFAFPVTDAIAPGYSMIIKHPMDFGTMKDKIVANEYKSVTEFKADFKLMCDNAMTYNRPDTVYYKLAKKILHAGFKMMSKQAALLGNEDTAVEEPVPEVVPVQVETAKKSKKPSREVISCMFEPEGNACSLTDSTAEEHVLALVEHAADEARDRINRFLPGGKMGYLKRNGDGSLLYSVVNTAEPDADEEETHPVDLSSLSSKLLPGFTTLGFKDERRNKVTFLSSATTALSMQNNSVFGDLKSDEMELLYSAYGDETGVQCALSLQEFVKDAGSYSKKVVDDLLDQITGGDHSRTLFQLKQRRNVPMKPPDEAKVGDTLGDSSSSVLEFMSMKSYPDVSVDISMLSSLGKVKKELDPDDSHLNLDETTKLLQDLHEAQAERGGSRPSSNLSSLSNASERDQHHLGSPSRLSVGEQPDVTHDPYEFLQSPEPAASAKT
Method: Assay Protocol 1—Degradation of HiBit-BRD9 in HEK293
HEK293 stably expressing LgBit and containing a HiBit insertion for BRD9 were plated in 384-well tissue culture plates at a density of 8×10^3 per well in a volume of 36 μL and incubated overnight at 37° C. and 5% CO2. Wells were treated with test compounds (11 pt titration up to 10 μM) for 6 h prior to addition of Nano-Glo® Hibit Lytic buffer (1:50 substrate and 1:100 LgBit protein) and reading on a PheraSTAR. Degradation data was plotted and analysed using Prism 8 (Graphpad).

BRD9 [2] = target: T2, BRD9; test: Assay Protocol 2 - Degradation of BRD9 (IF) in MV4-11 cells; set-up: host or cells: MV4-11; conditions: Assay Protocol 2: BRD9 immunofluorescence, 24 hours
Method: Assay Protocol 2—Degradation of BRD9 (IF)
A suspension of MV4-11 cells (ATCC CRL-9591) was prepared in phenol red-free assay media (IMDM Thermo Scientific 21056023+10% FBS ATCC 302025) and cells were seeded at 20,000 cells per well (45 μL) in sterile black poly-d-lysine coated 384 well plates (Greiner 781948). Compounds were prepared at 1000× final concentration in DMSO, diluted 1:100 in assay media, and 5 μL compound was added to each well of the cell plate. Cells were incubated for 24 hours at 37° C. with 5% CO2. All the following incubations for immunofluorescence staining were at room temperature. 15 μL of 16% PFA was added to each well (3.7% final concentration) and the cells were fixed for 15 min then washed twice with DPBS. Cells were permeabilised with 0.1% Triton X-100 for 10 min, Triton X-100 was removed, then blocked with 1% BSA in DPBS for 1 hour. Cells were stained with 25 μL anti-BRD9 E4Q3F antibody (CST 48306) diluted 1:25600 in 1% BSA in DPBS for 2-3 hours. Wells were washed twice with DPBS then incubated with 25 μL of 1% BSA containing a 1:1000 dilution of Anti-rabbit Alexa Fluor™ 647 secondary antibody (Thermo Scientific A^21244) and 1 μg/mL Hoechst nuclear counter stain (Abcam ab228551) for 1 hour. Wells were washed twice with DPBS prior to imaging on a Perkin Elmer Operetta CLS with 10× air lens. Images were processed using Harmony High-Content Imaging and Analysis Software (Perkin Elmer) and the mean contrast ratio of Alexa Fluor™ 647 in central nuclei was used to quantify BRD9 protein levels. Data was further analysed using Dotmatics software and % BRD9 remaining was calculated by normalisation to average data from high and low control wells (cells treated with DMSO or 100 nM CFT-8634 respectively).

T1 sequence (P51531 whole entry): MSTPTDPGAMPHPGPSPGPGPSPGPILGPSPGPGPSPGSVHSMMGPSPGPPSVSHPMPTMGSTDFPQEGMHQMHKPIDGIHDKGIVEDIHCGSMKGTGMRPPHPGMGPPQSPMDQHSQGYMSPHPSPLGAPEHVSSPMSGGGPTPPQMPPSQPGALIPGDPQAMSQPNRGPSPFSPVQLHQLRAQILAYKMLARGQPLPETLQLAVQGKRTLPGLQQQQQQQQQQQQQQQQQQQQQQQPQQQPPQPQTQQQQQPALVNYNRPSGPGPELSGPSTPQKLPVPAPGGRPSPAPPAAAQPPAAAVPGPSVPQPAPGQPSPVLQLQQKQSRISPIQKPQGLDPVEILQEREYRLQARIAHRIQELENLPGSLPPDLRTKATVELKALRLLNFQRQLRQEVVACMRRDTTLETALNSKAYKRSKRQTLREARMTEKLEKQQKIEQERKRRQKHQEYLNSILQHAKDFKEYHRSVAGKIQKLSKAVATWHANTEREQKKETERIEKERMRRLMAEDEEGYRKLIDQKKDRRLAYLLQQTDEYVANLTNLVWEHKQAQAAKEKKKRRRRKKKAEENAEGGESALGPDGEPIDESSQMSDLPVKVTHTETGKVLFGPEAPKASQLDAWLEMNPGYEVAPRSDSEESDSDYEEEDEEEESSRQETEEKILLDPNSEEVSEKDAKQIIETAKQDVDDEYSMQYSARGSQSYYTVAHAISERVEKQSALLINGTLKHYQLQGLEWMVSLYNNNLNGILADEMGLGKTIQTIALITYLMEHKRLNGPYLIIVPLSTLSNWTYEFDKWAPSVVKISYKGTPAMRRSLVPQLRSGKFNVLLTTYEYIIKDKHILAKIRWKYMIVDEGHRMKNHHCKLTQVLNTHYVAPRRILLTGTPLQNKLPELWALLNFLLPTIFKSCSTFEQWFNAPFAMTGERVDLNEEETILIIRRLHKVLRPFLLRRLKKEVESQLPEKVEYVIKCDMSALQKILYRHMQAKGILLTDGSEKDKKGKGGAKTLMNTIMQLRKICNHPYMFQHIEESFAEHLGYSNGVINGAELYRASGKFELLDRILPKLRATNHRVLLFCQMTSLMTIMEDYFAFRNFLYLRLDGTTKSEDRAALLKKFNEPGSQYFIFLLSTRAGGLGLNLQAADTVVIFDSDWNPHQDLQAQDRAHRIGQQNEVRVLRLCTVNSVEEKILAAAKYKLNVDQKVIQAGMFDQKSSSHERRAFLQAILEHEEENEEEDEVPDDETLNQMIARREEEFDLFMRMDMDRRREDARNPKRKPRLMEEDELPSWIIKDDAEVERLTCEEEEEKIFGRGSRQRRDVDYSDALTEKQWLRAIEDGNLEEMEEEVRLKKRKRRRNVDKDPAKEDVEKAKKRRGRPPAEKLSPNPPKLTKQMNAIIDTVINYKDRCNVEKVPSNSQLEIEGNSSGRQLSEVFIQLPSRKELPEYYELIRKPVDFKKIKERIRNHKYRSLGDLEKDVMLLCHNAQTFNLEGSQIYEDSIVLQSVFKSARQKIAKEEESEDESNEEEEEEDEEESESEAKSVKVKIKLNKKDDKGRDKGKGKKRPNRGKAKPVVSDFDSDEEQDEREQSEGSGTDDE

Row | Dmax (SMARCA2) [%] | DC50 (BRD9 [1]) [nM] | DC50 (BRD9 [2]) [nM] | Dmax (BRD9 [2]) [%] | Dmax (BRD9 [1]) [%] | SMILES
1 |  | 25 to 200 | < 25 |  |  | COc1cc(-c2cn(C)c(=O)c(C)c2C)cc(OC)c1CN1CCN(C(=O)/C(C#N)=C/C(C)(C)C)CC1 [BRD9a, (E/Z)-2-(4-(2,6-dimethoxy-4-(1,4,5-trimethyl-6-oxo-1,6-dihydropyridin-3-yl)benzyl)piperazine-1-carbonyl)-4,4-dimethylpent-2-enenitrile]
2 |  | < 25 | < 25 |  | ≥ 70 | COc1cc(-c2cn(C)c(=O)c(C)c2C)cc(OC)c1CN(C)C1CCN(C(=O)/C(C#N)=C/c2cccc(Br)n2)CC1 [BRD9z, (E/Z)-3-(6-bromopyridin-2-yl)-2-(4-((2,6-dimethoxy-4-(1,4,5-trimethyl-6-oxo-1,6-dihydropyridin-3-yl)benzyl)(methyl)amino)piperidine-1-carbonyl)acrylonitrile]

The next lines start with the molecule.

Row | SMILES | Dmax (SMARCA2) [%] | DC50 (BRD9 [1]) [nM] | DC50 (BRD9 [2]) [nM] | Dmax (BRD9 [2]) [%] | Dmax (BRD9 [1]) [%]
3 | CC(C)(C)/C=C(\C#N)C(=O)N1C[C@@H](C(=O)N[C@@H]2CCCN(c3cc(-c4ccccc4O)nnc3N)C2)[C@H](C2CCCCC2)C1 [SMARCA2h] | 65 to 80 |  |  |  | 
4 | CC(C)[C@@H]1CN(C(=O)/C(C#N)=C/C(C)(C)C)C[C@H]1C(=O)N[C@@H]1CCCN(c2cc(-c3ccccc3O)nnc2N)C1 [SMARCA2j] | 65 to 80 |  |  |  | 
5 | CC(C)C1CC(C(=O)N[C@@H]2CCCN(c3cc(-c4ccccc4O)nnc3N)C2)CN(C(=O)/C(C#N)=C/c2nccs2)C1 (stereo partly shown) [SMARCA2g] | 65 to 80 |  |  |  | 
6 | CC(C)(C)/C=C(\C#N)C(=O)N1CCN(CC(=O)N2CCc3[nH]c4nnc(-c5ccccc5O)cc4c3C2)CC1 [SMARCA2e] | 50 to 65 |  |  |  | 
7 | CC(C)(C)/C=C(\C#N)C(=O)N1CCN(CC(=O)N[C@@H]2CCCN(c3cc(-c4ccccc4O)nnc3N)C2)CC1 [SMARCA2b] | 50 to 65 |  |  |  | 
8 | N#C/C(=C\c1nccs1)C(=O)N1CCCC(C(=O)N[C@@H]2CCCN(c3cc(-c4ccccc4O)nnc3N)C2)C1 (stereo partly shown) [SMARCA2l] | 50 to 65 |  |  |  | 
9 | COc1cc(-c2cn(C)c(=O)c(C)c2C)cc(OC)c1CN1C2CC1CN(C(=O)/C(C#N)=C/c1cccc(Br)n1)C2 (mixture of isomers) [BRD9o, (E/Z)-3-(6-bromopyridin-2-yl)-2-(6-(2,6-dimethoxy-4-(1,4,5-trimethyl-6-oxo-1,6-dihydropyridin-3-yl)benzyl)-3,6-diazabicyclo[3.1.1]heptane-3-carbonyl)acrylonitrile] |  | < 25 | < 25 | ≥ 70 | 
10 | COc1cc(-c2cn(C)c(=O)c(C)c2C)cc(OC)c1CN1CCN(C(=O)[C@@H]2CN(C(=O)/C(C#N)=C/c3nccs3)C[C@H]2c2ccccc2)CC1 [BRD9ai] |  |  |  | 50 to 70 | 30 to 50
11 | COc1ccc([C@@H]2CN(C(=O)/C(C#N)=C/c3nccs3)C[C@H]2C(=O)N2CCN(Cc3c(OC)cc(-c4cn(C)c(=O)c(C)c4C)cc3OC)CC2)cc1 [BRD9ah] |  |  | < 25 | ≥ 70 | 30 to 50
12 | COc1cc(-c2cn(C)c(=O)c(C)c2C)cc(OC)c1CN1C2CC1CN(C(=O)/C(C#N)=C/c1nccs1)C2 (mixture of isomers) [BRD9n, (E/Z)-2-(6-(2,6-dimethoxy-4-(1,4,5-trimethyl-6-oxo-1,6-dihydropyridin-3-yl)benzyl)-3,6-diazabicyclo[3.1.1]heptane-3-carbonyl)-3-(thiazol-2-yl)acrylonitrile] |  | < 25 | < 25 | ≥ 70 | 
13 | CC(C)C1CC(C(=O)N[C@@H]2CCCN(c3cc(-c4ccccc4O)nnc3N)C2)CN(C(=O)/C(C#N)=C/C(C)(C)C)C1 (stereo partly shown) [SMARCA2f] | 50 to 65 |  |  |  | 
14 | COc1cc(-c2cn(C)c(=O)c(C)c2C)cc(OC)c1CN(C)C1CCN(C(=O)/C(C#N)=C/C23CC(C2)C3)CC1 (mixture of isomers) [BRD9ae, (E/Z)-3-(bicyclo[1.1.1]pentan-1-yl)-2-(4-((2,6-dimethoxy-4-(1,4,5-trimethyl-6-oxo-1,6-dihydropyridin-3-yl)benzyl)(methyl)amino)piperidine-1-carbonyl)acrylonitrile] |  | < 25 | < 25 | ≥ 70 | ≥ 70
15 | COc1ccc(C2CC(C(=O)N[C@@H]3CCCN(c4cc(-c5ccccc5O)nnc4N)C3)CN(C(=O)/C(C#N)=C/c3ccn(C)n3)C2)cc1 (stereo partly shown) [SMARCA2i] | 50 to 65 |  |  |  | 
